Experimental data taken from patent US20100273805A1, “SULPHIDE BRIDGED DERIVATIVES AS MODULATORS OF MGLUR5 733” (AstraZeneca AB, priority 2009, published 2010).

Columns and labels:
human mGluR5d = target: T1, human mGluR5d (Homo sapiens, UniProt P41594); test: FLIPR assay, mobilization of intracellular calcium in cells expressing human mGluR5d; format: cell-based; conditions: antagonism in cells expressing human mGluR5d, fluo-4 calcium signal; read-out: FLIPR hmGluR5d
T1 construct: expressed in transfected cells
T1 sequence (P41594 21-942 isoform P41594-3 limits assumed): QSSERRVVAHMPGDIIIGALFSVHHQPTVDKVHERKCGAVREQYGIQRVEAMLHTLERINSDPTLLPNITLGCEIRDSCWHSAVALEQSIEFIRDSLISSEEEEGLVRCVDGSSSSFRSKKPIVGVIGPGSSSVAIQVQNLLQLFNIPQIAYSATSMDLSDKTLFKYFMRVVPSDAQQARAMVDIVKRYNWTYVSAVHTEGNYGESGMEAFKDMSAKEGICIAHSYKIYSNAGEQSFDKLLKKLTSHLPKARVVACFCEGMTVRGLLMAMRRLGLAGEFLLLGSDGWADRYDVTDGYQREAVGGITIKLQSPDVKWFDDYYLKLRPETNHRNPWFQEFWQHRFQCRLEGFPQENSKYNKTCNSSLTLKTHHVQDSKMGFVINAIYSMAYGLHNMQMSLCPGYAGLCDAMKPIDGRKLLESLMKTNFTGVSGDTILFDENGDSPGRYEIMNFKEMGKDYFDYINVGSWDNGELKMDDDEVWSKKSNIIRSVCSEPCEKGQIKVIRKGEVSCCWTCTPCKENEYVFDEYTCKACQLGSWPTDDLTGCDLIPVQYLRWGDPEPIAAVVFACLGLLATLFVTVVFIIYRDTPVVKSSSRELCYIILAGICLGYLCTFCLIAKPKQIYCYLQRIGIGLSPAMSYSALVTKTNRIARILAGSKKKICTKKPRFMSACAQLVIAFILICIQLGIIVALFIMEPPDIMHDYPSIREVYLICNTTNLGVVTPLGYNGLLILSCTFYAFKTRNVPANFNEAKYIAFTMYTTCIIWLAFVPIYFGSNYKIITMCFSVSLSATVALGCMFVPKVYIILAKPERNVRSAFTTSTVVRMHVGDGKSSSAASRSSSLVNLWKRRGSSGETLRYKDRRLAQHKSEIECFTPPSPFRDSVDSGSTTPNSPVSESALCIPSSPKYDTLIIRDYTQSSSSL
Source text: Functional Assessment of mGluR5 Antagonism in Cell Lines Expressing mGluR5D
The properties of the compounds of the invention can be analyzed using standard assays for pharmacological activity. Examples of glutamate receptor assays are well known in the art as described in for example Aramori et al., Neuron 8:757 (1992), Tanabe et al., Neuron 8:169 (1992), Miller et al., J. Neuroscience 15: 6103 (1995), Balazs, et al., J. Neurochemistry 69:151 (1997). The methodology described in these publications is incorporated herein by reference. Conveniently, the compounds of the invention can be studied by means of an assay (FLIPR) that measures the mobilization of intracellular calcium, [Ca^2+]i in cells expressing mGluR5 or another assay (IP3) that measures inositol phosphate accumulation.
Cells expressing human mGluR5d as described in WO97/05252 cultured in a mixture of high glucose DMEM with Glutamax (31966-021) (500 mL), 10% dialyzed fetal bovine serum (Hyclone #SH30079.03)(56 mL), 200 ug/mL Hygromycin B (Invitrogen 45-0430, 50 mg/mL) (2.2 mL), 200 ug/mL Zeocin (Invitrogen #R250-01; 100 mg/mL) (1.1 mL) are seeded at a density of 15,000 cells per well on a black poly-D Lysin coated 384-plate with clear bottom (BD Biocoat 356663). Cells are allowed to adhere over night before experiments. All assays are done in a buffer containing 146 mM NaCl, 5 mM KCl, 1 mM MgCl2, 1 mM CaCl2, 20 mM HEPES, 1 mg/mL glucose and 1 mg/mL BSA Fraction IV (pH 7.4). Cell cultures in the 384-well plates are loaded for 60 minutes in the above mentioned buffer containing 3 μM of the acetoxymethyl ester form of the fluorescent calcium indicator fluo-4 (Molecular Probes, Eugene, Oreg.) in 0.025% pluronic acid (a proprietary, non-ionic surfactant polyol—CAS Number 9003-11-6). Following the loading period, the fluo-4 buffer is removed and the cellplate is washed three times with fresh assay buffer. FLIPR experiments are done using a laser setting of 1.0 W and 0.4 second CCD camera shutter speed with excitation and emission wavelengths of 488 nm and 562 nm, respectively.
Each experiment is initiated with 20 μl of buffer present in each well of the cell plate when 7.5 μl from the antagonist plate is added. After 30 minutes incubation in the dark at 25° C., 20 μL from the agonist plate is added to the wells. The fluorescence signal is sampled 60 times at 1 second intervals followed by 20 samples at 6 seconds intervals immediately after the agonist addition. Responses are measured as the difference between the peak height of the response to agonist, less the background fluorescence within the sample period. IC50 determinations are made using a […] least squares fitting program.

[1] = Determination of brain to plasma ratio in rat; format: in vivo; conditions: brain and plasma, female Sprague Dawley rats, drug in brain over drug in plasma, read-out: Brain/Plasma Ratio of compound in Rat
Protocol: Brain to plasma ratios are estimated in female Sprague Dawley rats. The compound is dissolved in water or another appropriate vehicle. For determination of brain to plasma ratio the compound is administrated as a subcutaneous, or an intravenous bolus injection, or an intravenous infusion, or an oral administration. At a predetermined time point after the administration a blood sample is taken with cardiac puncture. The rat is terminated by cutting the heart open, and the brain is immediately retained. The blood samples are collected in heparinized tubes and centrifuged within 30 minutes, in order to separate the plasma from the blood cells. The plasma is transferred to 96-well plates and stored at −20° C. until analysis. The brains are divided in half, and each half is placed in a pre-tarred tube and stored at −20° C. until analysis. Prior to the analysis, the brain samples are thawed and 3 mL/g brain tissue of distilled water is added to the tubes. The brain samples are sonicated in an ice bath until the samples are homogenized. Both brain and plasma samples are precipitated with acetonitrile. After centrifugation, the supernatant is diluted with 0.2% formic acid. Analysis is performed on a short reversed-phase HPLC column with rapid gradient elution and MSMS detection using a triple quadrupole instrument with electrospray ionisation and Selected Reaction Monitoring (SRM) acquisition. Liquid-liquid extraction may be used as an alternative sample clean-up. The samples are extracted, by shaking, to an organic solvent after addition of a suitable buffer. An aliquot of the organic layer is transferred to a new vial and evaporated to dryness under a stream of nitrogen. After reconstitution of the residuals the samples are ready for injection onto the HPLC column.

Row | SMILES | IC50 (human mGluR5d) [nM] | Kp [1]
1 | Cc1cccc(-n2nnc([C@@H](C)Sc3nnc(-c4ccn(C)c(=O)c4)n3C)n2)c1 [Example 8.2, (R)-1-Methyl-4-(4-methyl-5-(1-(2-m-tolyl-2H-tetrazol-5-yl)ethylthio)-4H-1,2,4-triazol-3-yl)pyridin-2(1H)-one] | 87 | 0.1
2 | Cc1cccc(-c2cc([C@@H](C)Sc3nnc(-c4cc[nH]c(=O)c4)n3C)no2)c1 [Example 8.5, (R)-4-(4-Methyl-5-(1-(5-m-tolylisoxazol-3-yl)ethylthio)-4H-1,2,4-triazol-3-yl)pyridin-2(1H)-one] | 146 | < 0.01
3 | Cc1cccc(-c2cc([C@@H](C)Sc3nnc(-c4ccn(C)c(=O)c4)n3C)no2)c1 [Example 8.6, (R)-1-Methyl-4-(4-methyl-5-(1-(5-m-tolylisoxazol-3-yl)ethylthio)-4H-1,2,4-triazol-3-yl)pyridin-2(1H)-one] | 380 | 0.02
4 | Cc1cccc(-c2nc([C@@H](C)Sc3nnc(-c4cn[nH]c(=O)c4)n3C)no2)c1 [Example 8.10, (R)-5-(4-Methyl-5-(1-(5-m-tolyl-1,2,4-oxadiazol-3-yl)ethylthio)-4H-1,2,4-triazol-3-yl)pyridazin-3(2H)-one] | 41 | 0.04

Molecules with a lower IC50 (human mGluR5d), results first:

Row | IC50 (human mGluR5d) [nM] | Kp [1] | SMILES
5 | 30 | 0.16 | Cc1cccc(-c2nc([C@@H](C)Sc3nnc(-c4ccn(C)c(=O)c4)n3C)no2)c1 [Example 8.4, (R)-1-Methyl-4-(4-methyl-5-(1-(5-m-tolyl-1,2,4-oxadiazol-3-yl)ethylthio)-4H-1,2,4-triazol-3-yl)pyridin-2(1H)-one]
6 | 24 | 0.09 | Cc1cccc(-c2nc([C@@H](C)Sc3nnc(-c4cc[nH]c(=O)c4)n3C)no2)c1 [Example 8.3]
7 | 19 | < 0.01 | Cc1cccc(-n2nnc([C@@H](C)Sc3nnc(-c4cc[nH]c(=O)c4)n3C)n2)c1 [Example 8.1, (R)-4-(4-Methyl-5-(1-(2-m-tolyl-2H-tetrazol-5-yl)ethylthio)-4H-1,2,4-triazol-3-yl)pyridin-2(1H)-one]
8 | 19 | 0.26 | Cc1cccc(-c2cc([C@@H](C)Sc3nnc(-c4cn[nH]c(=O)c4)n3C)no2)c1 [Example 8.7, (R)-5-(4-Methy1-5-(1-(5-m-tolylisoxazol-3-yl)ethylthio)-4H-1,2,4-triazol-3-yl)pyridazin-3(2H)-one]
9 | 18 | < 0.01 | Cc1cccc(-n2nnc([C@@H](C)Sc3nnc(-c4cn[nH]c(=O)c4)n3C)n2)c1 [Example 8.8, (R)-5-(4-Methyl-5-(1-(2-m-tolyl-2H-tetrazol-5-yl)ethylthio)-4H-1,2,4-triazol-3-yl)pyridazin-3(2H)-one]
10 | 18 | < 0.015 | C[C@@H](Sc1nnc(-c2cn[nH]c(=O)c2)n1C)c1nnn(-c2cccc(Cl)c2)n1 [Example 8.9, (R)-5-(5-(1-(2-(3-Chlorophenyl)-2H-tetrazol-5-yl)ethylthio)-4-methyl-4H-1,2,4-triazol-3-yl)pyridazin-3(2H)-one]
